Measurements published in US20120010178A1, “METHODS AND COMPOUNDS FOR TREATMENT OF NEURODEGENERATIVE DISORDERS” (PRESIDENT AND FELLOWS OF HARVARD COLLEGE, priority 2008, published 2012).
Entries after “also recorded” stand apart in the source; their conditions may differ.

Key:
[1] = system: SMN; experiment: SMN levels in human motor neurons derived from patient iPS cells; format: cell-based; conditions: two days after treatment
Description: GFP expressing motor neurons were derived from an […] patient iPS cells as described below. After growing for approximately 1 week, motor neurons were treated with allsterpaullone. Two days after treatment with allsterpaullone, cells were fixed and stained with SMN antibody or GFP antibody. […] Induced pluripotent stem cells were generated from an SMA patient fibroblast line from Coriell (GM09677) and differentiated into motor neurons according to methods adapted from Dimos, J. T., et. al. Science (2008) 321, 1218-122, Epub Jul. 31, 2008).

[2] = system: PC12 cells; conditions: cited from earlier work
[3] = system: ES-cell derived Motor Neurons with SMN knockdown; experiment: Motor neuron survival assay after SMN knockdown (shRNA lentivirus); format: cell-based, mouse; conditions: for surviving motor neurons compared to DMSO: 1.25 and 2.5 uM
Excerpt: To test for survival, motor neurons were infected with three lentiviral constructs acquired from Open Biosystems (pGIPZ): a non-silencing (NS) shRNA and two with unique shRNA sequences directed against the Smn transcript. […] Quantification of SMN knockdown were made in 3T3 cells (FIGS. 39a-39b) and in motor neurons by sorting ES cell derived motor neurons (cherry positive) infected with the pGIPZ lentiviruses (GFP positive cells) by FACS and quantifying the amount of SMN by Western blot.
Effect of reduced SMN levels on motor neuron survival was investigated next. Motor neurons were plated and infected with the various lentiviral constructs. […] To test the effects of SMN increasing compounds, we added them to motor neurons two days after lentiviral infection. Over the course of the subsequent three days, we counted live cherry expressing motor neurons on a daily basis.
Mouse ES-cells expressing cherry fluorescent protein (CFP) under control of a Hb9 promoter, a motor neuron specific transcription factor, were used to differentiate motor neurons as described in Example 31. Motor neurons were infected with the three constructs that were acquired from Open Biosystems (pGIPZ): a non-silencing (NS) shRNA and two constructs with unique shRNA sequences directed against the Smn transcript. […] First we performed motor neuron survival assays to test whether reduced levels of SMN will affect viability of these motor neurons. We differentiated mES cells with Hb9-Chemy Fluorescent Protein (Hb9-CFP) in to motor neurons expressing CFP, that later we dissociated and plated on DIV0. Cells were infected with the NS pGIPZ virus, SMN#1 pGIPZ virus, SMN#2 pGIPZ virus or no virus on DIV 1. The percentage of surviving motor neuron was normalized to the uninfected control culture. […] The percentage of surviving motor neuron was normalized to the culture infected with control non-targeting shRNA.

[4] = system: SMN; experiment: High-content fibroblast screen for compounds that modulate SMN level; conditions: human fibroblasts, 2-3 days with compound;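 further: Anti-SMN immunostaining with confocal imaging of nuclear and cytoplasmic SMN and gem counts, tested at 0.1, 1 and 10 uM, fold change relative to negative control wells on each plate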
Description: Human fibroblasts were incubated for 2-3 days with compounds from annotated collections. Cells were fixed and stained with an anti-SMN antibody. Confocal imaging was used to quantify SMN fluorescence in nucleus and cytoplasm and count Gems. Data were collected and subsequently analyzed by clustering compounds by suspected mechanism of action and chemical structure.
Following optimization of assay conditions on day 0, total of 500 human fibroblasts (GM09677 line) per well were seeded in 384-well plates, on day 3 they were treated with compounds (robot CyBio) from the annotated collections and on the 5 day plates were fixed and stained (robot MAPD) with an anti-SMN antibody and secondary antibody conjugated with 448 fluorophore (FIG. 19a). Compounds from the libraries were added in duplicate at three final concentrations of 10, 1 and 0.1 uM.
SMN detection was done on the automated confocal microscope Opera PerkinElmer with separate fluorescent exposures to 488 nM laser for and a UV light source to detect nuclei stained with Hoechst 33258 with a 20× objective.
After scanning on the Opera, an XML file extraction workflow, designed with Inforsense KDE, was used to assemble the data from multiple replicate plates of each HCS experiment including the quantitative parameters described above and chemical identities, chemical concentrations and indications of which wells were used for positive and negative controls. […] The fold-induction of SMN intensity values for each well treated with a library chemical were normalized to the SMN average intensity in multiple negative control wells per plate.
Since it is not known which form of SMN increase is the most essential, hits that scored in a duplicate at least in two different parameters greater than 1.3 fold at any of the three concentrations were selected (FIG. 19d). […] Further, 220 compounds were screened in the absence of anti-SMN primary antibody with the same assay conditions, to filter out the fluorescent compounds.

[5] = system: motor neurons; experiment: Motor neuron survival (mouse motor neurons, compound treatment); format: cell-based
Description: Mouse motor neurons were treated with […] inhibitors. The levels of both cytoplasmic and nuclear SMN were detected and quantified using the method described in Example 2. The results shown in FIG. 14b indicate that […] inhibitors increase motor neuron survival.
Another way of assessing motor neuron survival is by withdrawing the neurotrophic factors from the media. Briefly, motor neurons are grown in media containing neurotrophic factors. The neurotrophic factors are then withdrawn from the growth media, e.g., cells transferred to media having no neurotrophic factors or neurotrophic factor containing media exchanged with neurotrophic factors lacking media. The compound of interest is added and motor neurons are counted on a daily basis.

[6] = system: kinase phosphorylation sites (Akt, RSK1, p38, GSKa/b, Erk1/2); experiment: Phospho-kinase antibody array of PDGF treated fibroblasts; format: cell-based, human; conditions: 50 ng/ml, 30 min
Description: Although there is much more known about growth factor specificity and downstream pathways that they activate, whether PDGF effect on SMN was mediated through the binding to the PDGFR was tested next. The SMN-increasing effects of PDGF were blocked by DMPQ and […], two small molecules inhibitors of the PDGF receptor (FIG. 21a). In addition PDGF neutralizing antibody titration were performed in the cells incubated with 20 ng/ml platelet-derived PDGF. Depending on the antibody concentration, gradient of SMN level decrease reaching 40% was observed (FIG. 21b). Moreover, as might be predicted, since there are appreciable levels of PDGF in the media serum in which the fibroblasts are normally maintained, simply adding PDGFR inhibitors DMPQ and AG-1296 to the media decreases the “basal” level of SMN in these cells down to 15-20%, (FIG. 22). Same effect was reproduced by adding PDGF neutralizing antibody to the media, confirming that PDGF can be a physiologically relevant regulator of SMN levels (FIG. 21c). […]
Cellular lysates from fibroblasts GM09677 treated with 50 ng/ml of PDGF-BB for 30 minutes and untreated control fibroblasts were collected and hybridized with the phosphor-kinase array membranes accordingly to the manufacture protocol (R&D Systems). […] Levels of phosphorylated protein were detected by measurement on the X-ray film (Kodak).

Row | Molecule | SMN levels in human iPS derived motor neurons (in words) [1] | protection from EGTA induced death [2] | survival of motor neurons after SMN knockdown (in words) ([3]; 1.25, 2.5 or 5 uM) | surviving motor neurons compared to DMSO ([3]; by the second day) | surviving motor neurons compared to DMSO ([3]; by the third day) | SMN level in fibroblast screen (increase or decrease) [4] | motor neuron survival (in words) [5] | effect on Erk1 and 2 kinase phosphorylation [6] | kinases phosphorylated upon stimulation [6]
1 | O=C1Cc2c([nH]c3ccc([N+](=O)[O-])cc23)-c2ccccc2N1 [Alsterpaullone] | Increased SMN levels | able to protect PC12 cells from EGTA induced death | able to rescue the survival; also recorded: rescues the survival of SMN-KD Motor Neurons up to control level | twice the amount of surviving cells | three fold difference | SMN is increase |  |  | 
2 | PDGF |  |  |  |  |  |  | no effect | little effect | phosphorylation of Akt, RSK1, p38 and GSKa/b
